Experimental data from ChEMBL document CHEMBL1201862, “PubChem BioAssay data set” (2004).
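1) Cells in 96-well plates. 2) Compound, 48 h, 5 concentrations. 3) Linear interpolation between surrounding doses. 4) Unreached endpoint = highest concentration. GI50 is the concentration that inhibits growth by half.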 Calls of active or inactive are those of the source. Cut-off read from the data, not from the text of the source: active = GI50 up to about 1.1 µM and inactive = higher.

Assays:
Assay in all cases: inhibition of tumour cell growth, NCI panel, 48 h
[1] = system: SF-539
[2] = system: SW-620
[3] = system: SR
[4] = system: COLO 205
[5] = system: SNB-75
[6] = system: UACC-62
[7] = system: NCI-H23
[8] = system: RXF 393
[9] = system: CCRF-CEM
[10] = system: MDA-MB-435
[11] = system: Malme-3M
[12] = system: UO-31
[13] = system: K562
[14] = system: UACC-257
[15] = system: HCT-15
[16] = system: IGROV-1
[17] = system: HCT-116
[18] = system: EKVX
[19] = system: HOP-92
[20] = system: 786-0
[21] = system: SK-OV-3
[22] = system: SK-MEL-28
[23] = system: SN12C
[24] = system: A549
[25] = system: KM12
[26] = system: M19-MEL
[27] = system: DLD-1
[28] = system: XF498
[29] = system: OVCAR-3
[30] = system: NCI-H226
[31] = system: HOP-18
[32] = system: Hs-578T
[33] = system: U-251
[34] = system: OVCAR-5
[35] = system: ACHN
[36] = system: DMS-273
[37] = system: LOX IMVI
[38] = system: SK-MEL-5
[39] = system: SNB-19
[40] = system: HT-29
[41] = system: MDA-N
[42] = system: HL-60
[43] = system: RPMI-8226
[44] = system: OVCAR-4
[45] = system: HOP-62
[46] = system: SK-MEL-2
[47] = system: BT-549
[48] = system: PC-3
[49] = system: T47D
[50] = system: A498
[51] = system: CAKI-1
[52] = system: NCI-H460
[53] = system: TK-10
[54] = system: MDA-MB-231
[55] = system: OVCAR-8
[56] = system: HCC 2998
[57] = system: DU-145
[58] = system: DMS-114
[59] = system: MOLT-4
[60] = system: SF-268
[61] = system: SNB-78
[62] = system: NCI-H522
[63] = system: MCF7
[64] = system: M14
[65] = system: NCI/ADR-RES
[66] = system: KM-20L2
[67] = system: SF-295

## O=C[C@@H](CO)O[C@H](C=O)c1c[nH]c(=O)[nH]c1=O
[1]
  GI50: 101 µM (inactive)
[2]
  GI50: 62.8 µM (inactive)
[3]
  GI50: 35.6 µM (inactive)
[4]
  GI50: 77.1 µM (inactive)
[5]
  GI50: 182 µM (inactive)
[6]
  GI50: 72.8 µM (inactive)
[7]
  GI50: 69.3 µM (inactive)
[8]
  GI50: 54.8 µM (inactive)
[9]
  GI50: 34.9 µM (inactive)
[10]
  GI50: 49.4 µM (inactive)
[11]
  GI50: 88.7 µM (inactive)
[12]
  GI50: 88.5 µM (inactive)
[13]
  GI50: 66.1 µM (inactive)
[14]
  GI50: 104 µM (inactive)
[15]
  GI50: 57.8 µM
[16]
  GI50: 81.1 µM (inactive)
[17]
  GI50: 84.5 µM (inactive)
[18]
  GI50: 75.7 µM (inactive)
[19]
  GI50: 81.1 µM (inactive)
[20]
  GI50: 128 µM (inactive)
[21]
  GI50: 112 µM (inactive)
[22]
  GI50: 85.7 µM (inactive)
[23]
  GI50: 83 µM (inactive)
[24]
  GI50: 192 µM (inactive)
[25]
  GI50: 93.3 µM (inactive)
[26]
  GI50: 104 µM (inactive)
[27]
  GI50: 75 µM (inactive)
[28]
  GI50: 24.7 µM (inactive)
[29]
  GI50: 68.4 µM (inactive)
[30]
  GI50: 101 µM (inactive)
[31]
  GI50: 95.1 µM (inactive)
[32]
  GI50: 100 µM (inactive)
[33]
  GI50: 143 µM (inactive)
[34]
  GI50: 131 µM (inactive)
[35]
  GI50: 81.1 µM (inactive)
[36]
  GI50: > 81.5 µM (inactive)
[37]
  GI50: 93.8 µM (inactive)
[38]
  GI50: 83.9 µM (inactive)
[39]
  GI50: 129 µM (inactive)
[40]
  GI50: 107 µM (inactive)
[41]
  GI50: 70.8 µM (inactive)
[42]
  GI50: 22.3 µM (inactive)
[43]
  GI50: 53.8 µM (inactive)
[44]
  GI50: 83.9 µM (inactive)
[45]
  GI50: 59 µM (inactive)
[46]
  GI50: 100 µM (inactive)
[47]
  GI50: 79.1 µM (inactive)
[48]
  GI50: 89.1 µM (inactive)
[49]
  GI50: 73.6 µM (inactive)
[50]
  GI50: 119 µM (inactive)
[51]
  GI50: 71.6 µM (inactive)
[52]
  GI50: 105 µM (inactive)
[53]
  GI50: 104 µM (inactive)
[54]
  GI50: 74.1 µM (inactive)
[55]
  GI50: 66.1 µM (inactive)
[56]
  GI50: 98.4 µM (inactive)
[57]
  GI50: 100 µM (inactive)
[58]
  GI50: 37.6 µM (inactive)
[59]
  GI50: 47.8 µM (inactive)
[60]
  GI50: 102 µM (inactive)
[61]
  GI50: 133 µM (inactive)
[62]
  GI50: 70.1 µM (inactive)
[63]
  GI50: 45.2 µM (inactive)
[64]
  GI50: 126 µM (inactive)
[65]
  GI50: 103 µM (inactive)
[66]
  GI50: 84.3 µM (inactive)
[67]
  GI50: 146 µM (inactive)
